Experimental data published in patent US20120269762A1, “CAUSAL THERAPY OF DISEASES OR CONDITIONS ASSOCIATED WITH CNS OR PNS DEMYELINATION” (UNIVERSITY COLLEGE DUBLIN, NATIONAL UNIVERSITY OF IRELAND, …, priority 2009, published 2012).

Tests used:
[1] = test system: C57BL/6 mice on cuprizone diet; experiment: Cuprizone animal model of demyelination (luxol fast blue myelin staining, corpus callosum); assay type: in vivo; conditions: 30 mg/kg/day i.p. from 5 days before return to normal diet; 1 day time-point after 6 weeks cuprizone (0.2% wt/wt) diet
Protocol: Demyelination was induced by feeding 12-14 week old C57B1/6 mice a diet containing 0.2% cuprizone (bis-cyclohexanone oxaldihydrazone) mixed into food pellets. This diet was maintained ad libitum for 6 weeks before returning animals to normal chow (T=0) in order to study remyelination. Control animals received control chow throughout the study. Commencing from 5 days before the return to control chow (T=−5 days), animals received daily intra-peritoneal injections of 30 mg/kg nefiracetam or vehicle only until the end of the study. At different time points, (T=1 day, T=3 days, T=7 days) animals were sacrificed, brains were snap frozen in Optimal Cutting Temperature (OTC) Compound and stored. Coronal frozen sections, 20 μm thick, were cut using a cryostat at approximately −1.8 mm from bregma. Sections were fixed in 70% ethanol, defatted in 50% chloroform/50% ethanol, rehydrated, and then myelin was stained with luxol fast blue. The degree of myelination in the corpus callosum was assessed based on the intensity of the luxol fast blue staining

[2] = test system: Lewis rats susceptible to develop experimental autoimmune encephalomyelitis (EAE); experiment: EAE animal model of multiple Sclerosis (clinical score); assay type: in vivo; conditions: versus saline-treated controls, n=5
[3] = clinical studies, oral administration; cited from earlier work
[4] = test system: organotypic cultures of rat hippocampus; experiment: LPC-induced demyelination in hippocampal organotypic slice culture (MBP immunofluorescence); assay type: cell-based, Wistar rats; conditions: 10 μm drug, 24 h post-LPC treatment (250 μg/ml LPC for 18 hours); compared to control
Protocol: Slices were maintained in normal organotypic medium for 10 days, at which point demyelination was induced by exposing the cultures to 250 μg/ml lysophosphatidylcholine (LPC) in the medium for 18 hours. After the LPC exposure, slices were returned to LPC free medium containing either 10 μm nefiracetam, 10 μm piracetam, 10 μm levetiracetam, 10 μm aniracetam, or no drug. […] Protoc. […] Labelled MBP in the cultures was imaged by confocal microscopy, and the degree of myelination was compared to time matched cultures that had not undergone LPC exposure.

SMILES | myelin levels (myelin density) in the corpus callosum [1] | clinical score (magnitude and timing of clinical symptoms) ([2]; increasing doses (9, 15 and 30 mg/kg) i.p. daily from onset of clinical symptoms) | clinical score (magnitude and timing of clinical symptoms) ([2]; treated from day of inoculation with MBP) | tolerability in humans [3] | MBP expression (percent of field of view positive for MBP) [4]
Cc1cccc(C)c1NC(=O)CN1CCCC1=O [Nefiracetam, N-(2,6-dimethylphenyl)-2-(2-oxo-1-pyrrolidinyl)acetamide] | completely restored myelin levels to normal | No significant differences were seen | No significant difference was seen | well tolerated | restored MBP expression to control levels or above
COc1ccc(C(=O)N2CCCC2=O)cc1 [aniracetam] |  |  |  |  | restored MBP expression to control levels or above
CC[C@H](C(N)=O)N1CCCC1=O [levetiracetam] |  |  |  |  | restored MBP expression to control levels or above
NC(=O)CN1CCCC1=O [piracetam] |  |  |  |  | restored MBP expression to control levels or above
